Here are results for 1 compound from US20240217979A1, “GluN2 Subunit Selective Antagonists of the N-Methyl-D-Aspartate Receptors” (Emory University, priority 2021, published 2024).

Common to all, as to format: cell-based
One test addresses T1, rat GluN1/GluN2A (Rattus norvegicus, UniProt Q00959).
T1 construct: expressed in transfected cells; host or cells: Xenopus laevis oocytes (cRNA injection, GluN1/GluN2 ratio 1:2)
Nature of the test: Two-electrode voltage-clamp recording in Xenopus laevis oocytes expressing recombinant rat GluN1/GluN2A. Particulars: current ratio reported for 10 μM test compound (footnote c). On the procedure:
(§1) Two-electrode voltage-clamp recording was performed in Xenopus laevis oocytes injected with mRNA to express recombinant rat GluN1/GluN2A, GluN1/GluN2B, GluN1/GluN2C, and GluN1/GluN2D. cDNAs for rat NMDA subunits GluN1-la (GenBank U08261; hereafter GluN1), GluN2A (GenBank D13211), GluN2B (GenBank U11419), GluN2C (GenBank M91563), and GluN2D (GenBank L31611) were provided by Drs. S. Heinemann from Salk Institute, S. Nakanishi from Kyoto University, and P. Seeburg from the University of Heidelberg. An automatic injector (Nanoject II, Drummond Scientific) was used for cRNA injection using the pipettes filled with mineral oil. The cRNA that transcribed in vitro via the mMessage Machine kit (Ambion) was diluted with nuclease-free water, and then injected at a GluN1/GluN2 ratio of 1:2. The oocytes were stored in Barth's solution that contained 88 mM NaCl, 5.0 mM Tris-HCl, 2.4 mM NaHCO3, 1.0 mM KCl, 0.84 mM MgSO4, 0.41 mM CaCl2), 0.33 mM Ca(NO3)2, 0.1 mg/ml gentamycin sulfate, 1.0 U/ml penicillin, and 1 μg/ml streptomycin at pH 7.4 and temperatures of 15-17° C. for two to five days before the two-electrode voltage-clamp recordings.
(§2) During recording, the oocytes were placed in a perfusion chamber and continually washed with the recording solution containing 90 mM NaCl, 1.0 mM KCl, 0.50 mM BaCl2, 0.005 mM EDTA, and 10 mM HEPES at pH 7.4 and a temperature of 23° C. Glass electrodes with a tip resistance of 0.5 to 2.5 MΩ were obtained from thin-walled glass capillary tubes. Voltage electrodes and current electrodes were filled with 0.3 M and 3.0 M KCl, respectively. The recordings were executed with the oocytes membrane potential holding at −40 mV by an OC-725 amplifier (Warner Instrument Co.). All compounds were dissolved in dimethyl sulfoxide (DMSO) as 20 mM stock solutions and further diluted to reach the desired concentration (0.05-0.5% (vol/vol) DMSO) in recording solution comprised of 30 µM glycine and 100 µM glutamate. In general, each compound was tested in multiple oocytes. To evaluate the inhibitory efficacy of the compounds, concentration-response curves were plotted using the average two-electrode voltage-clamp recording results and fitted by the following equation:
(§3) response=100/{1+[(inhibitor concentration)/IC50]^N} • where IC50 is the concentration of compound that inhibit half maximal of the current response and N is the Hill slope.

Test [1] has as its target T2, rat GluN1/GluN2C (Rattus norvegicus, UniProt Q00961).
T2 construct: expressed in transfected cells; host or cells: Xenopus laevis oocytes (cRNA injection, GluN1/GluN2 ratio 1:2)
Nature of the test: Two-electrode voltage-clamp recording in Xenopus laevis oocytes expressing recombinant rat GluN1/GluN2C. Particulars: current ratio reported for 10 μM test compound (footnote c). On the procedure:
as §1, §2, §3

The target in test [2] is T3, rat GluN1/GluN2C (Rattus norvegicus, UniProt P35439+Q00961).
T3 construct: expressed in transfected cells; host or cells: Xenopus laevis oocytes (cRNA injection, GluN1/GluN2 ratio 1:2)
The description is as above. The conditions noted are these: Tables 1 and 2; read-out: IC50 (μM) [95% Confidence Interval] GluN2C. The method, then:
as §1, §2, §3

The target of the next test is T4, rat GluN1/GluN2B (Rattus norvegicus, UniProt Q00960).
T4 construct: expressed in transfected cells; host or cells: Xenopus laevis oocytes (cRNA injection, GluN1/GluN2 ratio 1:2)
Nature of the test: Two-electrode voltage-clamp recording in Xenopus laevis oocytes expressing recombinant rat GluN1/GluN2B. Particulars: current ratio reported for 10 μM test compound (footnote c). On the procedure: as §1, §2, §3

The target in test [3] is T5, rat GluN1/GluN2D (Rattus norvegicus, UniProt Q62645).
T5 construct: expressed in transfected cells; host or cells: Xenopus laevis oocytes (cRNA injection, GluN1/GluN2 ratio 1:2)
Briefly: Two-electrode voltage-clamp recording in Xenopus laevis oocytes expressing recombinant rat GluN1/GluN2D. Particulars: current ratio reported for 10 μM test compound (footnote c). The method, then:
as §1, §2, §3

Test [4] has as its target T6, rat GluN1/GluN2D (Rattus norvegicus, UniProt P35439+Q62645).
T6 construct: expressed in transfected cells; host or cells: Xenopus laevis oocytes (cRNA injection, GluN1/GluN2 ratio 1:2)
The test is described as above. The conditions noted are these: Tables 1 and 2; read-out: IC50 (μM) [95% Confidence Interval] GluN2D. On the procedure: as §1, §2, §3

T2 sequence (Q00961 20-1237, other chains not shown): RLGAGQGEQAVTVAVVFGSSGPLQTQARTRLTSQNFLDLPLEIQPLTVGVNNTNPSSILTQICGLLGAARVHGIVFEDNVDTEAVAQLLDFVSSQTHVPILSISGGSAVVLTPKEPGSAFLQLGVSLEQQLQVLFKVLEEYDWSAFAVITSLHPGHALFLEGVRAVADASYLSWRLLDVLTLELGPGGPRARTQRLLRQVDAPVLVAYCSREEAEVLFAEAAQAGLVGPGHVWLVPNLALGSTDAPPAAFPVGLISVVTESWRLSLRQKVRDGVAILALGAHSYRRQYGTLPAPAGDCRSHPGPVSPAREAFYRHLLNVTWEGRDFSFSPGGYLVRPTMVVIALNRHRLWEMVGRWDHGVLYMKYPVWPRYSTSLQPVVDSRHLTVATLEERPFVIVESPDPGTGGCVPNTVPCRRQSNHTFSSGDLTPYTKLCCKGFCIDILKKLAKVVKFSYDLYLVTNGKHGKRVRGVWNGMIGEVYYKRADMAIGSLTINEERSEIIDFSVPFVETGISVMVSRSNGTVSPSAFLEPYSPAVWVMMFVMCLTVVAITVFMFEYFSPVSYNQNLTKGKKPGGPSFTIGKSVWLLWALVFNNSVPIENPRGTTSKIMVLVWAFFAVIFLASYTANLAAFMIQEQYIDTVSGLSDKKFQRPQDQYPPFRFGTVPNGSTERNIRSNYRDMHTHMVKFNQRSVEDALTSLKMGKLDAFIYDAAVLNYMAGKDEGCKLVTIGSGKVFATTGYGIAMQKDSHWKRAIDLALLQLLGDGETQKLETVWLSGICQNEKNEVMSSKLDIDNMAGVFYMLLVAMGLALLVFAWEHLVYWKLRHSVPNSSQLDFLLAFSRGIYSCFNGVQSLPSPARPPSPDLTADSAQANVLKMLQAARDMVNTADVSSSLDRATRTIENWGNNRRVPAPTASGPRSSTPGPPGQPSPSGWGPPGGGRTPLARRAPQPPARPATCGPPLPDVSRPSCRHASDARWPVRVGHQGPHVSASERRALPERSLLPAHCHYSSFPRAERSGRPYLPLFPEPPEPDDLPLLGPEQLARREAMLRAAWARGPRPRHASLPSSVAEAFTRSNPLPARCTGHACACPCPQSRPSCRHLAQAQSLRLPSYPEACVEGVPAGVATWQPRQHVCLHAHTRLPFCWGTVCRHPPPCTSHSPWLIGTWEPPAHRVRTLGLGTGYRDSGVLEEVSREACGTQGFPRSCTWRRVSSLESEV
T3 sequence (Q00961 20-1237, other chains not shown): as above
T1 sequence (Q00959 23-1464, other chains not shown): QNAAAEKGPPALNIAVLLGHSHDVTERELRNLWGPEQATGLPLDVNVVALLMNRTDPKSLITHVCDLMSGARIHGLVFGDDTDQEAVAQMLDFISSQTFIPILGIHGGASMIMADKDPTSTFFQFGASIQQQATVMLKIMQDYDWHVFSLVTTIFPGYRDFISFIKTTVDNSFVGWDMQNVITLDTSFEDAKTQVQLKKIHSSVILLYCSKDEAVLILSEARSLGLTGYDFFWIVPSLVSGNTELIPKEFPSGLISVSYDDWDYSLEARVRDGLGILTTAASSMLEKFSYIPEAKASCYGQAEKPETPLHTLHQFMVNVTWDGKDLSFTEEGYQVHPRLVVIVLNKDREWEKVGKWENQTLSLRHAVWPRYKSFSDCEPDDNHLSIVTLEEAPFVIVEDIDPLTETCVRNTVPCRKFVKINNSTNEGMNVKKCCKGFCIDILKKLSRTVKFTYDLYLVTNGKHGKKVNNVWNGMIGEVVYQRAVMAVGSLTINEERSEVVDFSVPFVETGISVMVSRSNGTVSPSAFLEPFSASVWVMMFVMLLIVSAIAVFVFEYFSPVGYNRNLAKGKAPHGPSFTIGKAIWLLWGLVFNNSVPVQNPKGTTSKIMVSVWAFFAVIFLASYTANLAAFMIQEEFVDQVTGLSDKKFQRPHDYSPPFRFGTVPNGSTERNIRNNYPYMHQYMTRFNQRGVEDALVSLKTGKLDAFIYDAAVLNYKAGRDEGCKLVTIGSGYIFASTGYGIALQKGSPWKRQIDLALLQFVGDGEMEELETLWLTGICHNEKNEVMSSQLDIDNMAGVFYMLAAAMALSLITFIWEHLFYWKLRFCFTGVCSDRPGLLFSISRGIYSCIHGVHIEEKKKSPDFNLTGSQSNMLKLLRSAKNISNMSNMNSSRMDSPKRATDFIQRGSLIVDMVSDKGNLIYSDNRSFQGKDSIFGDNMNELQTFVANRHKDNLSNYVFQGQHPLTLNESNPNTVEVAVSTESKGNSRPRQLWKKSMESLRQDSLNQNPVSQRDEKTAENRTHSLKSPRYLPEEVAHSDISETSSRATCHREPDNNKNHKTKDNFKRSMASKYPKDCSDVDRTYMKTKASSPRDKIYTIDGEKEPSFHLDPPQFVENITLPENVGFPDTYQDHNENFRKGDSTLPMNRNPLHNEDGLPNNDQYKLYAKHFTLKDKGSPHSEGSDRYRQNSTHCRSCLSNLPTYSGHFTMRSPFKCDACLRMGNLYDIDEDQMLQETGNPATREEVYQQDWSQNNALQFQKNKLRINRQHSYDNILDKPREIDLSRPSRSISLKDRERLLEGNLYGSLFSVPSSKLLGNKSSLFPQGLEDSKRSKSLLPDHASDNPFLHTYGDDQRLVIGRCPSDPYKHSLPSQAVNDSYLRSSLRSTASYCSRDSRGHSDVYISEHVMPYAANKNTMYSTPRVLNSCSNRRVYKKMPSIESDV
T4 sequence (Q00960 27-1482, other chains not shown): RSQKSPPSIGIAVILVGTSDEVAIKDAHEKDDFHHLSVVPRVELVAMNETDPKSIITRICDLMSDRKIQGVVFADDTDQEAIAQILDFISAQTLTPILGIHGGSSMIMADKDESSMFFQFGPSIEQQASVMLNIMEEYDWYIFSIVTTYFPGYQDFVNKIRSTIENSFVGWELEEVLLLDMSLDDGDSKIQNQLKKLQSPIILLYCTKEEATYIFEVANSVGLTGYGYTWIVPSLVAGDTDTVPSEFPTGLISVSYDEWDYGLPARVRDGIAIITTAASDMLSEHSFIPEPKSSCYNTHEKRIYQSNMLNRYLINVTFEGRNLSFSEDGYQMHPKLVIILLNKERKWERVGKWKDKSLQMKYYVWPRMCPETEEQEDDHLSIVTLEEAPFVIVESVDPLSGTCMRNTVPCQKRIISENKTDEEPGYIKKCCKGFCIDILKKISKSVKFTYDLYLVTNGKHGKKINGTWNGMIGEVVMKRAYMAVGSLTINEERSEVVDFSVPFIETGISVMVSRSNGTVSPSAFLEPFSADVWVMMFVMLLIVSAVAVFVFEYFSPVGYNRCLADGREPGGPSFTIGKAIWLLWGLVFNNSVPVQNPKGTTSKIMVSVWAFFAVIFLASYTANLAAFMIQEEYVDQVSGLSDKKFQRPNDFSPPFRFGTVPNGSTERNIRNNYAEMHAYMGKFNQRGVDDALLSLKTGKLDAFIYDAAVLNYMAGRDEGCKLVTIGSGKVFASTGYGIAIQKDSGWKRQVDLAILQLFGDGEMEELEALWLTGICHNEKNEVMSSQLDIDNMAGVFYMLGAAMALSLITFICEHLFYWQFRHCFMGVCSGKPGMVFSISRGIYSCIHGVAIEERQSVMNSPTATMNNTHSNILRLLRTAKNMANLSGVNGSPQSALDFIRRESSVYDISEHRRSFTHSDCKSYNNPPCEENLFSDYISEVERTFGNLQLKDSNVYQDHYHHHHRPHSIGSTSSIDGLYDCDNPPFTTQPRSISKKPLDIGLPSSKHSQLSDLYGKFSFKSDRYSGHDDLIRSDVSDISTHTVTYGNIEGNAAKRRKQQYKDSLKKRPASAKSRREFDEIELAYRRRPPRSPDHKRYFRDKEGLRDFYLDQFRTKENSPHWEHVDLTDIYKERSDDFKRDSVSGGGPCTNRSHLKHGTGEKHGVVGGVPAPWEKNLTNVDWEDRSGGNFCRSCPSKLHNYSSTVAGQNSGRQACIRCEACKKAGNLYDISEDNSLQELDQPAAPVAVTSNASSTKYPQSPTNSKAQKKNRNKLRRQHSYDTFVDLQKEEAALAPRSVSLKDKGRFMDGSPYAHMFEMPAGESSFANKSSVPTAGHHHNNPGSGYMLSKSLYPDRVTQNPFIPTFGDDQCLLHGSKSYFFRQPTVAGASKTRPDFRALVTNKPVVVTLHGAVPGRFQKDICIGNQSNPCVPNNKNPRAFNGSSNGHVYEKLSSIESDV

For the compound `O=C(O)CC(F)(F)C(=O)N1N=C(c2c(-c3ccc(Cl)cc3)c3ccncc3[nH]c2=O)CC1c1ccc(Cl)cc1` (stereo not drawn) [Compound 120, 4-[3-(4-Chlorophenyl)-5-[4-(4-chlorophenyl)-2-oxo-1H-1,7-naphthyridin-3-yl]-3,4-dihydropyrazol-2-yl]-3,3-difluoro-4-oxo-butanoic acid], the “Current ratio I/Icontrol (mean ± SEM, %) GluN2A” value on rat GluN1/GluN2A is 77 ± 4.8^c (n = 2, 7) %. The “Current ratio I/Icontrol (mean ± SEM, %) GluN2C” value on rat GluN1/GluN2C [1] was 18 ± 1.0^c (n = 3, 11) %. Also, the results for the IC50 on rat GluN1/GluN2C [2] and on rat GluN1/GluN2D [4] were 2.1 µM and 0.8 µM, respectively. In addition, the “Current ratio I/Icontrol (mean ± SEM, %) GluN2B” value on rat GluN1/GluN2B is recorded as 82 ± 1.7^c (n = 2, 8) %. For the same compound, on rat GluN1/GluN2D [3], the “Current ratio I/Icontrol (mean ± SEM, %) GluN2D” value is 7.4 ± 0.9^c (n = 3, 10) %.
